Experiments:
caspase-3 = assay: Caspase-3 activity (Z-DEVD-AFC fluorescence); format: cell-based; conditions: rat PMCs, D-glucose 50 mM, 24 hours, aliskiren 10-100 μM, FIG. 7
Procedure: The cells were incubated in D-glucose at 50 mM for 24 hours in the presence or absence of aliskiren (10-100 μM), and caspase-3 activity was measured as described in Material and Methods. The data is expressed as mean±SEM, n=3. * p<0.05 compared to the control (C). # p<0.05 compared to untreated cells (control). # p<0.05, compared to cells treated with D-glucose in the presence of carrier (0).
Rat peritoneal mesothelial cells were isolated by enzymatic digestion in accordance with protocols described in Hjelle J T, Golinska B T, Waters D C, et al. Perit Dial Int 1989; 9: 341-7. Briefly, female rats weighing 200-400 g of the Spragle-Dawley strain were sacrificed pursuant to Royal Decree 1201/2005, of 10 Oct., on protection of animals used for experimental and other scientific purposes. […]
In order to determine caspase-3 activity (Posadas I, Vellecco V, Santos P, et al. Br J Pharmacol 2007; 150: 577-85), the rat mesothelial cells were seeded on 6-well plates until reaching a confluence of 80%. […] After incubation, the samples were centrifuged at 13,000 rpm for 15 minutes at 4° C. and the protein concentration in the supernatants was determined using the Bradford method, following the standard protocol. […] Fluorescence emission was determined on a spectrofluorimeter (Tecan, Austria) at an excitation wavelength of 400 nm and an emission wavelength of 505 nm.

p53 = assay: Real-time RT-PCR in PMCs from dialysed rats; format: in vivo, rat; conditions: peritoneal cells from rats dialysed four weeks, aliskiren 0.1 or 1 mg/Kg, FIG. 14
Procedure: The rats were exposed daily for four weeks to carrier (saline serum), 1.5% PDF, 2.3% PDF or 4.5% PDF supplemented by, 0.1 mg/Kg aliskiren or 1 mg/Kg aliskiren. The data is expressed as mean±SEM, n=6 rats per group. * p<0.05, compared to the group treated with carrier in the absence of aliskiren (carrier). # p<0.05, compared to their respective groups treated with PDFs in the absence of aliskiren. […]
At the end of the experimental period (four weeks), 30 ml of a commercial PDF with 2.3% glucose (Fresenius Medical Car, Bad Homburg, Germany) was administered intraperitoneally using a 22G needle. […] Their body weight was measured at the start and end of the experimental period. […]
The blood and dialysate samples were centrifuged and stored at −20° C. The concentrations of creatinine and glucose in the serum and dialysate were measured using enzymatic methods. The peritoneal transport of solutes was calculated, on one hand, as the glucose concentration in the dialysate 2 hours after the PET relative to the initial glucose concentration in the PDF (D2/D0 glucose) and, on the other, as the dialysate/plasma creatinine concentration ratio (D2/P2 creatinine) 2 h after the PET. […]
The RNA expression was evaluated by real-time RT-PCR in PMCs. […] RNA quality and concentration was evaluated by spectrophotometry (Infinite 200, Tecan, Salzburg, Austria) using 1 μl of the RNA sample. […]

In the case of `COCCCOc1cc(C[C@@H](C[C@H](N)[C@@H](O)C[C@H](C(=O)NCC(C)(C)C(N)=O)C(C)C)C(C)C)ccc1OC` [aliskiren], the activation of caspase (caspase-3) is reported as “prevented” and the “RNAm expression of pro-apoptotic protein p53” value (p53) is reported as “reduced”.
